Data published in ChEMBL document CHEMBL1149937, “A new class of dinucleotide analogues. The synthesis of 3-O-thymidylyl(5-deoxy-5-selene-thymidylyl)-Se-phosphoroselenolate, its O-methyl ester and methanephosphonate derivatives” (Bioorg Med Chem Lett, 1994).

Columns and labels:
Format in all cases: functional, cell-based
Conditions in all cases: Homo sapiens
ATH-8 cell line [1] = experiment: Antiviral activity against HIV-1 using CD4+ ATH8 cells at a concentration of 25 uM; moderately toxic
ATH-8 cell line [2] = experiment: Antiviral activity against HIV-1 using CD4+ ATH8 cells at a concentration of 5 uM; No detectable activity
ATH-8 cell line [3] = experiment: Antiviral activity against HIV-1 using CD4+ ATH8 cells at a concentration of 25 uM; No detectable activity

Row | Structure (SMILES) | Activity (ATH-8 cell line [1]) | Activity (ATH-8 cell line [2]) | Activity (ATH-8 cell line [3])
1 | Cc1cn([C@H]2C[C@H](OP(=O)(O)[Se]C[C@H]3O[C@@H](n4cc(C)c(=O)[nH]c4=O)C[C@@H]3O)[C@@H](CO)O2)c(=O)[nH]c1=O | Toxic | No activity | 
2 | COP(=O)(O[C@H]1C[C@H](n2cc(C)c(=O)[nH]c2=O)O[C@@H]1CO)[Se]C[C@H]1O[C@@H](n2cc(C)c(=O)[nH]c2=O)C[C@@H]1O (some centres undefined) |  | No activity | No activity
